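Protocol summary: plate cells (96-well), add compound at 5 concentrations, incubate 48 h, interpolate endpoints linearly. Here, GI50 denotes the concentration required for 50% inhibition of growth.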 Activity calls are given as the source filed them. Cut-off read from the data, not from the text of the source: active = GI50 up to about 1.1 µM and inactive = higher.
How the values were obtained:
Assay in all cases: DTP human tumour cell line panel, 48 h
DLD-1 = tested on: DLD-1
RPMI-8226 = tested on: RPMI-8226
K562 = tested on: K562
786-0 = tested on: 786-0
CAKI-1 = tested on: CAKI-1
RXF 393 = tested on: RXF 393
DMS-114 = tested on: DMS-114
LXFL 529 = tested on: LXFL 529
SK-MEL-2 = tested on: SK-MEL-2
HCT-116 = tested on: HCT-116
SN12C = tested on: SN12C
SF-539 = tested on: SF-539
UACC-257 = tested on: UACC-257
OVCAR-3 = tested on: OVCAR-3
XF498 = tested on: XF498
A498 = tested on: A498
NCI-H23 = tested on: NCI-H23
SNB-19 = tested on: SNB-19
SK-MEL-5 = tested on: SK-MEL-5
NCI-H460 = tested on: NCI-H460
EKVX = tested on: EKVX
TK-10 = tested on: TK-10
HCT-15 = tested on: HCT-15
KM-20L2 = tested on: KM-20L2
SF-295 = tested on: SF-295
HOP-18 = tested on: HOP-18
M14 = tested on: M14
SK-OV-3 = tested on: SK-OV-3
OVCAR-5 = tested on: OVCAR-5
HL-60 = tested on: HL-60
OVCAR-8 = tested on: OVCAR-8
NCI-H226 = tested on: NCI-H226
Malme-3M = tested on: Malme-3M
OVCAR-4 = tested on: OVCAR-4
SNB-75 = tested on: SNB-75
IGROV-1 = tested on: IGROV-1
UACC-62 = tested on: UACC-62
SW-620 = tested on: SW-620
SNB-78 = tested on: SNB-78
DMS-273 = tested on: DMS-273
LOX IMVI = tested on: LOX IMVI
HCC 2998 = tested on: HCC 2998
CCRF-CEM = tested on: CCRF-CEM
M19-MEL = tested on: M19-MEL
ACHN = tested on: ACHN
HOP-92 = tested on: HOP-92
HOP-62 = tested on: HOP-62
UO-31 = tested on: UO-31
HT-29 = tested on: HT-29
A549 = tested on: A549
MOLT-4 = tested on: MOLT-4
U-251 = tested on: U-251
COLO 205 = tested on: COLO 205
KM12 = tested on: KM12
SF-268 = tested on: SF-268
NCI-H522 = tested on: NCI-H522
SK-MEL-28 = tested on: SK-MEL-28
NCI/ADR-RES = tested on: NCI/ADR-RES
MCF7 = tested on: MCF7
SR = tested on: SR

COc1nc(NC2OC(COC(C)=O)C(OC(C)=O)C(OC(C)=O)C2OC(C)=O)c2c(OC(C)=O)cc(=O)oc2n1 (centres undefined)
GI50 (DLD-1): > 100 µM (inactive)
GI50 (RPMI-8226): > 100 µM (inactive)
GI50 (K562): > 100 µM (inactive)
GI50 (786-0): > 100 µM (inactive)
GI50 (CAKI-1): > 100 µM (inactive)
GI50 (RXF 393): > 100 µM (inactive)
GI50 (DMS-114): > 100 µM (inactive)
GI50 (LXFL 529): > 100 µM (inactive)
GI50 (SK-MEL-2): > 100 µM (inactive)
GI50 (HCT-116): > 100 µM (inactive)
GI50 (SN12C): > 100 µM (inactive)
GI50 (SF-539): > 100 µM (inactive)
GI50 (UACC-257): > 100 µM (inactive)
GI50 (OVCAR-3): > 100 µM (inactive)
GI50 (XF498): > 100 µM (inactive)
GI50 (A498): 15.9 µM (inactive)
GI50 (NCI-H23): > 100 µM (inactive)
GI50 (SNB-19): > 100 µM (inactive)
GI50 (SK-MEL-5): > 100 µM (inactive)
GI50 (NCI-H460): 13.8 µM (inactive)
GI50 (EKVX): > 100 µM (inactive)
GI50 (TK-10): > 100 µM (inactive)
GI50 (HCT-15): > 100 µM
GI50 (KM-20L2): > 100 µM (inactive)
GI50 (SF-295): > 100 µM (inactive)
GI50 (HOP-18): > 100 µM (inactive)
GI50 (M14): > 100 µM (inactive)
GI50 (SK-OV-3): > 100 µM (inactive)
GI50 (OVCAR-5): > 100 µM (inactive)
GI50 (HL-60): > 100 µM (inactive)
GI50 (OVCAR-8): > 100 µM (inactive)
GI50 (NCI-H226): > 100 µM (inactive)
GI50 (Malme-3M): > 100 µM (inactive)
GI50 (OVCAR-4): > 100 µM (inactive)
GI50 (SNB-75): > 100 µM (inactive)
GI50 (IGROV-1): > 100 µM (inactive)
GI50 (UACC-62): > 100 µM (inactive)
GI50 (SW-620): > 100 µM (inactive)
GI50 (SNB-78): > 100 µM (inactive)
GI50 (DMS-273): > 100 µM (inactive)
GI50 (LOX IMVI): > 100 µM (inactive)
GI50 (HCC 2998): > 100 µM (inactive)
GI50 (CCRF-CEM): > 100 µM (inactive)
GI50 (M19-MEL): > 100 µM (inactive)
GI50 (ACHN): 12.5 µM (inactive)
GI50 (HOP-92): > 100 µM (inactive)
GI50 (HOP-62): > 100 µM (inactive)
GI50 (UO-31): > 100 µM (inactive)
GI50 (HT-29): > 100 µM (inactive)
GI50 (A549): > 100 µM (inactive)
GI50 (MOLT-4): > 100 µM (inactive)
GI50 (U-251): > 100 µM (inactive)
GI50 (COLO 205): > 100 µM (inactive)
GI50 (KM12): > 100 µM (inactive)

O=C(NC/C=C/CO)c1ccccc1
GI50 (DLD-1): > 100 µM (inactive)
GI50 (RPMI-8226): > 100 µM (inactive)
GI50 (K562): > 100 µM (inactive)
GI50 (SF-268): > 100 µM (inactive)
GI50 (RXF 393): > 100 µM (inactive)
GI50 (DMS-114): > 100 µM (inactive)
GI50 (SK-MEL-2): > 100 µM (inactive)
GI50 (HCT-116): > 100 µM (inactive)
GI50 (SN12C): > 100 µM (inactive)
GI50 (SF-539): > 100 µM (inactive)
GI50 (NCI-H522): > 100 µM (inactive)
GI50 (UACC-257): > 100 µM (inactive)
GI50 (OVCAR-3): > 100 µM (inactive)
GI50 (XF498): > 100 µM (inactive)
GI50 (A498): > 100 µM (inactive)
GI50 (NCI-H23): > 100 µM (inactive)
GI50 (SNB-19): > 100 µM (inactive)
GI50 (SK-MEL-5): > 100 µM (inactive)
GI50 (NCI-H460): > 100 µM (inactive)
GI50 (EKVX): > 100 µM (inactive)
GI50 (HCT-15): > 100 µM
GI50 (KM-20L2): > 100 µM (inactive)
GI50 (SK-MEL-28): > 100 µM (inactive)
GI50 (SF-295): > 100 µM (inactive)
GI50 (HOP-18): > 100 µM (inactive)
GI50 (NCI/ADR-RES): > 100 µM (inactive)
GI50 (SK-OV-3): > 100 µM (inactive)
GI50 (OVCAR-5): > 100 µM (inactive)
GI50 (HL-60): > 100 µM (inactive)
GI50 (MCF7): > 100 µM (inactive)
GI50 (OVCAR-8): > 100 µM (inactive)
GI50 (NCI-H226): > 100 µM (inactive)
GI50 (Malme-3M): > 100 µM (inactive)
GI50 (OVCAR-4): > 100 µM (inactive)
GI50 (SNB-75): 65.8 µM (inactive)
GI50 (IGROV-1): > 100 µM (inactive)
GI50 (UACC-62): > 100 µM (inactive)
GI50 (SW-620): > 100 µM (inactive)
GI50 (SNB-78): > 100 µM (inactive)
GI50 (DMS-273): > 100 µM (inactive)
GI50 (LOX IMVI): > 100 µM (inactive)
GI50 (HCC 2998): > 100 µM (inactive)
GI50 (CCRF-CEM): > 100 µM (inactive)
GI50 (M19-MEL): > 100 µM (inactive)
GI50 (HOP-62): > 100 µM (inactive)
GI50 (UO-31): > 100 µM (inactive)
GI50 (HT-29): > 100 µM (inactive)
GI50 (A549): > 100 µM (inactive)
GI50 (MOLT-4): > 100 µM (inactive)
GI50 (U-251): > 100 µM (inactive)
GI50 (COLO 205): > 100 µM (inactive)
GI50 (KM12): > 100 µM (inactive)

Cc1cccc(C)c1NC(=O)C1=NC(=S)NC(c2ccccc2)C1c1nc2ccccc2s1 (centres undefined)
GI50 (DLD-1): > 100 µM (inactive)
GI50 (K562): > 100 µM (inactive)
GI50 (786-0): > 100 µM (inactive)
GI50 (CAKI-1): > 100 µM (inactive)
GI50 (SF-268): > 100 µM (inactive)
GI50 (RXF 393): > 100 µM (inactive)
GI50 (DMS-114): > 100 µM (inactive)
GI50 (LXFL 529): > 100 µM (inactive)
GI50 (SK-MEL-2): > 100 µM (inactive)
GI50 (HCT-116): > 100 µM (inactive)
GI50 (SN12C): > 100 µM (inactive)
GI50 (SF-539): > 100 µM (inactive)
GI50 (NCI-H522): > 100 µM (inactive)
GI50 (UACC-257): > 100 µM (inactive)
GI50 (OVCAR-3): > 100 µM (inactive)
GI50 (XF498): > 100 µM (inactive)
GI50 (A498): > 100 µM (inactive)
GI50 (NCI-H23): > 100 µM (inactive)
GI50 (SNB-19): > 100 µM (inactive)
GI50 (SK-MEL-5): > 100 µM (inactive)
GI50 (NCI-H460): > 100 µM (inactive)
GI50 (EKVX): > 100 µM (inactive)
GI50 (TK-10): > 100 µM (inactive)
GI50 (KM-20L2): > 100 µM (inactive)
GI50 (SK-MEL-28): > 100 µM (inactive)
GI50 (SF-295): > 100 µM (inactive)
GI50 (HOP-18): > 100 µM (inactive)
GI50 (M14): > 100 µM (inactive)
GI50 (SR): > 100 µM (inactive)
GI50 (SK-OV-3): > 100 µM (inactive)
GI50 (HL-60): > 100 µM (inactive)
GI50 (OVCAR-8): > 100 µM (inactive)
GI50 (NCI-H226): > 100 µM (inactive)
GI50 (Malme-3M): > 100 µM (inactive)
GI50 (OVCAR-4): > 100 µM (inactive)
GI50 (SNB-75): > 100 µM (inactive)
GI50 (IGROV-1): > 100 µM (inactive)
GI50 (UACC-62): > 100 µM (inactive)
GI50 (SW-620): > 100 µM (inactive)
GI50 (SNB-78): > 100 µM (inactive)
GI50 (DMS-273): > 100 µM (inactive)
GI50 (HCC 2998): > 100 µM (inactive)
GI50 (CCRF-CEM): > 100 µM (inactive)
GI50 (M19-MEL): > 100 µM (inactive)
GI50 (ACHN): > 100 µM (inactive)
GI50 (HOP-92): > 100 µM (inactive)
GI50 (UO-31): > 100 µM (inactive)
GI50 (HT-29): > 100 µM (inactive)
GI50 (A549): > 100 µM (inactive)
GI50 (MOLT-4): > 100 µM (inactive)
GI50 (U-251): > 100 µM (inactive)
GI50 (COLO 205): > 100 µM (inactive)
GI50 (KM12): > 100 µM (inactive)
